From ChEMBL document CHEMBL1146156, “Fish venom (Pterios volitans) peptide reduces tumor burden and ameliorates oxidative stress in Ehrlich's ascites carcinoma xenografted mice” (2006)

Legend:
Assay type in all cases: functional
Mus musculus [1] = test: Increase in liver GST activity of Ehrlich's ascites carcinoma xenografted Swiss Albino mouse at 20 mg/kg
Mus musculus [2] = test: Increase in liver glutathione peroxidase activity of Ehrlich's ascites carcinoma xenografted Swiss Albino mouse at 20 mg/kg
Mus musculus [3] = test: Decrease in body weight of Ehrlich's ascites carcinoma xenografted Swiss albino mouse at 20 mg/kg
Mus musculus [4] = test: Increase in mean survival time of Ehrlich's ascites carcinoma xenografted Swiss Albino mouse at 20 mg/kg
Mus musculus [5] = test: Increase in life span of Ehrlich's ascites carcinoma xenografted Swiss Albino mouse at 20 mg/kg
Mus musculus [6] = test: Effect on TBARS levels in liver of Ehrlich's ascites carcinoma xenografted Swiss Albino mouse at 20 mg/kg measured per 100 g tissue
Mus musculus [7] = test: Effect on hydroperoxide levels in liver of Ehrlich's ascites carcinoma xenografted Swiss Albino mouse at 20 mg/kg measured per 100 g tissue
Mus musculus [8] = test: Effect on GSH content in liver of Ehrlich's ascites carcinoma xenografted Swiss Albino mouse at 20 mg/kg measured per 100 g tissue
Mus musculus [9] = test: Increase in liver SOD activity of Ehrlich's ascites carcinoma xenografted Swiss Albino mouse at 20 mg/kg
Mus musculus [10] = test: Increase in liver catalase activity of Ehrlich's ascites carcinoma xenografted Swiss Albino mouse at 20 mg/kg

What does the source list for `O=c1[nH]cc(F)c(=O)[nH]1` [FLUOROURACIL]?
Activity (Mus musculus [1]): 16.2 U/mg; Activity (Mus musculus [2]): 6.97 U/mg; Activity (Mus musculus [3]): 25.2 g; MST (Mus musculus [4]): 39.5 days; Activity (Mus musculus [5]): 119.49%; Activity (Mus musculus [6]): 0.99 mmol; Activity (Mus musculus [7]): 0.85 mmol; Activity (Mus musculus [8]): 3.65 mmol; Activity (Mus musculus [9]): 3.96 U/mg; Activity (Mus musculus [10]): 20.4 U/mg
